This assay deals with Human CYP17 (Homo sapiens (Human), UniProt P05093). The experiment in a line: CYP17 Total SPA Assay. Type of assay: biochemical. The conditions noted are these: microsomes from HEK2 cells stably transfected with CYP17; 3H-Pregnenolone 1 uM, NADPH 2 mM; 45 minutes at room temperature. How it is done: The assays were performed in U-bottom 384-well optiplates. The final assay volume was 15 μl prepared from 7.5 μl additions of microsomes (prepared as a high-speed pellet from homogenized HEK2 cells stably transfected with CYP17), substrates (3H-Pregnenolone and NADPH) and test compounds in assay buffer (50 mM Potassium phosphate pH 7.2, 10% glycerol). The reaction was initiated by the combination of the microsomes and substrates in wells containing compound. The reaction was incubated at room temperature for 45 minutes and terminated by adding 7.5 μl of 0.2N HCl to each well. Following an incubation period of 10 minutes, anti-DHEA-coated SPA beads were added to the terminated reaction. The plate was sealed and incubated overnight with shaking at 4° C. The beads were allowed to settle in the plate for 1 hour and the plate read on a TOPCOUNT® (Perkin-Elmer) plate reader.
Sequence of Human CYP17 (P05093 whole entry): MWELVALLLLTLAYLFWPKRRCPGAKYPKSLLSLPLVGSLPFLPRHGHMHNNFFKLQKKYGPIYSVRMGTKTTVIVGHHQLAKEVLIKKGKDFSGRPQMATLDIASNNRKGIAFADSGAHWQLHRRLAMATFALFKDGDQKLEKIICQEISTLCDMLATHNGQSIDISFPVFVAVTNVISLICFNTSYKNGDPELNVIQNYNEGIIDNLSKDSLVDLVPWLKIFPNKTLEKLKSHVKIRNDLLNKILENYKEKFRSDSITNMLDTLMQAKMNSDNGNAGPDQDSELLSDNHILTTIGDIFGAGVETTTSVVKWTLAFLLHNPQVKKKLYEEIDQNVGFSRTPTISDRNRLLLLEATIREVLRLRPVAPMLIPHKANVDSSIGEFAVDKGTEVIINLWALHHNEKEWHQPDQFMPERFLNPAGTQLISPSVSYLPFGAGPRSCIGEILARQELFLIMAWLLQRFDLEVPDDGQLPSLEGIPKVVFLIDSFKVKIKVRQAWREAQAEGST
Inhibition data were calculated by comparison to no enzyme control reactions for 100% inhibition and vehicle-only reactions for 0% inhibition. The final concentration of reagents in the assays are NADPH, 2 mM; 3H-Pregnenolone, 1 uM; microsomes, 1.25 ug/ml; Anti-DHEA-SPA beads (0.125 mg/well) in 0.5% Triton X-100 and DMSO, 0.05%. Dose response curves were generated to determine the concentration required inhibiting 50% of enzyme activity (IC50). Compounds were dissolved at 10 mM in dimethylsulfoxide (DMSO) and evaluated at eleven concentrations, each in duplicate. IC50 values were derived by non-linear regression analysis.
Table 5 below lists the IC50 values for the following examples of this invention measured in the Total CYP17 SPA Assay hereinabove.

As a reminder, the IC50 is the concentration needed to halve the response being measured.

Structures are written as SMILES.

As for `Cc1ccncc1-c1cccc2c(-c3ccccc3)noc12` [Example 1, 7-(4-Methylpyridin-3-yl)-3-phenylbenzo[d]isoxazole], the IC50 was found to be 1.1 nM. The result for `Cc1ncncc1-c1cccc2c(-c3ccccc3)noc12` [Example 4, 7-(4-Methylpyrimidin-5-yl)-3-phenylbenzo[d]isoxazole] reads 357 nM; that for `Cc1ccncc1-c1cccc2c(-c3ccc(F)cc3)noc12` [Example 6, 3-(4-Fluorophenyl)-7-(4-methylpyridin-3-yl)benzo[d]isoxazole], 3.2 nM. On to `Fc1ccc(-c2noc3c(-c4cncn5cccc45)cccc23)cc1` [Example 14, 3-(4-Fluorophenyl)-7-(pyrrolo[1,2-c]pyrimidin-4-yl)benzo[d]isoxazole], for which the IC50 was found to be 192 nM. On to `FC(F)(F)COc1ncncc1-c1cccc2c(-c3cnccn3)noc12` [Example 26, 3-(Pyrazin-2-yl)-7-(4-(2,2,2-trifluoroethoxy)pyrimidin-5-yl)benzo[d]isoxazole], for which the IC50 was determined as 65 nM. Regarding `Clc1ccncc1-c1cccc2c(C3CC3)noc12` [Example 30, 7-(4-Chloropyridin-3-yl)-3-cyclopropylbenzo[d]isoxazole], the IC50 was found to be 48 nM. With `Clc1ccccc1-c1noc2c(-c3cncnc3-n3cncn3)cccc12` [Example 52, 7-(4-(1H-1,2,4-Triazol-1-yl)pyrimidin-5-yl)-3-(2-chlorophenyl)benzo[d]isoxazole], the IC50 turned out to be 42 nM.

Turning to `Clc1ccccc1-c1noc2c(-c3cncnc3-n3nccn3)cccc12` [Example 57, 7-(4-(2H-1,2,3-Triazol-2-yl)pyrimidin-5-yl)-3-(2-chlorophenyl)benzo[d]isoxazole], the 50% inhibitory concentration (IC50) worked out at 524 nM. As to `Cc1ccncc1-c1cccc2c(OCCN(C)C)noc12` [Example 68], the IC50 was determined as 524 nM.

`Cc1ccncc1-c1ccnc2c(-c3ccc(F)cc3)noc12` [Example 86, 3-(4-Fluorophenyl)-7-(4-methylpyridin-3-yl)isoxazolo[4,5-b]pyridine]: the IC50 turned out to be 3.9 nM.

With `Cc1ccncc1-c1ccnc2c(-c3nccs3)csc12` [Example 94, 7-(4-Methylpyridin-3-yl)-3-(thiazol-2-yl)thieno[3,2-b]pyridine], the IC50 worked out at 76 nM. Turning to `Cc1ncncc1-c1ccnc2c(-c3ccc(F)cc3)csc12` [Example 98, 3-(4-Fluorophenyl)-7-(4-methylpyrimidin-5-yl)thieno[3,2-b]pyridine], the IC50 worked out at 8 nM. Then `Fc1ccc(-c2csc3c(-c4cncnc4C4CC4)ccnc23)cc1` [Example 99, 7-(4-Cyclopropylpyrimidin-5-yl)-3-(4-fluorophenyl)thieno[3,2-b]pyridine], with 4 nM. Then `Nc1ncncc1-c1ccnc2c(-c3ccc(F)cc3Cl)csc12` [Example 103, 5-(3-(2-Chloro-4-fluorophenyl)thieno[3,2-b]pyridin-7-yl)pyrimidin-4-amine], with 4 nM; and `Fc1ccc(-c2csc3c(-c4cncc5ccccc45)cccc23)cc1` [Example 109, 4-(3-(4-Fluorophenyl)benzo[b]thiophen-7-yl)isoquinoline], with 56 nM; and `Cc1ccncc1-c1cccc2c(OCc3ccc4ccccc4c3)noc12` [Example 124, 7-(4-methylpyridin-3-yl)-3-(naphthalen-2-ylmethoxy)benzo [d]isoxazole], with 611 nM. Then `Cc1ccncc1-c1cccc2c(OCc3ccc(Cl)cc3)noc12` [Example 128, 3-(4-chlorobenzyloxy)-7-(4-methylpyridin-3-yl)benzo[d] isoxazole], with 251 nM; and `COc1ccc(COc2noc3c(-c4cnccc4C)cccc23)cc1` [Example 129, 3-(4-methoxybenzyloxy)-7-(4-methylpyridin-3-yl)benzo[d] isoxazole], with 79 nM.

The values above are taken from patent US8969586B2 (Bristol-Myers Squibb Company, priority 2011, dated 2015).
